We go through four compounds from article PMC4592245 (PLoS ONE, 2015).

In data set [1] the test system is SUM159PT. Description: Cell cytotoxicity assay (MTT), SUM159PT. It is filed as cell-based. Particulars: 72 h. The protocol:
(§1) TNBC cells (5000 to 7000 cells per well) were seeded in 96-well plates in medium supplemented with 10% FBS. […] Cell viabilities relative to untreated control cells were plotted using Graphpad Prism.

Data set [2] relates to MDA-MB–231. Put plainly: Cell cytotoxicity assay (MTT), MDA-MB-231. It is filed as cell-based. The note with it: MDA-MB-231, 72 h. As to the method: as §1
Data set [3] deals with mouse primary hepatocytes. Description: Viability of primary hepatocytes. In kind it is cell-based. The note with it: concentrations of up to 10 μM. As to the method:
The HCC1143 cell line was grown in RPMI–1640 medium, SUM149PT and SUM159PT cell lines were grown in F–12 medium, and MDA-MB–231 cells were grown in DMEM. All culture media were supplemented with 10% fetal bovine serum. All cell lines were grown in a humidified incubator containing 5% CO2 at 37°C. Primary hepatocytes were isolated from an adult male mouse (C57BL) by collagenase perfusion (0.8 mg/mL; Sigma–Aldrich, C5138) through the portal vein as described previously, and maintained in M199 medium with 10% FBS. The viability of freshly isolated hepatocytes was verified using Trypan blue staining.
as §1

The nature of data set [4]: Pharmacokinetic study of 3-phospho-bufalin.
Protocol: Five quality control (QC) samples at 10 ng/mL, 20 ng/mL, 500 ng/mL, 4000 ng/mL and 8000 ng/mL of plasma were prepared independently of those used for the calibration curves. QC samples were prepared on the day of analysis in the same way as the calibration standards.
Standards, QC samples, and unknown samples were injected into LC-MS/MS for quantitative analysis. The pharmacokinetic parameters of p-Buf were analyzed using WinNonLin. The PK trace was fitted into a non-compartmental extravascular model.
The test system of data set [5] is LM3-3 cells. Put plainly: Gefitinib and bufalin co-treatment, cell viability. It is filed as cell-based.
In data set [6] the test system is HCC1143. Description: Cell cytotoxicity assay (MTT), HCC1143. It is filed as cell-based. Particulars: Homo sapiens, HCC1143, 72 h. As to the method: as §1
In data set [7] the test system is MDA-MB-231-LM3-3. Description: Cell cytotoxicity assay (MTT), MDA-MB-231-LM3-3. In kind it is cell-based. Particulars: MDA-MB-231-LM3-3, 72 h. The protocol: as §1
Data set [8] deals with SUM149PT. Description: Cell cytotoxicity assay (MTT), SUM149PT. In kind it is cell-based. The note with it: 72 h. The protocol:
as §1

Data set [9] has as its system LM3-3 cells. Description: Single cell motility assay. In kind it is cell-based. The protocol:
Microtiter 96-well plates pre-coated with collagen V were covered with beads provided by a Cell Motility HCS kit (Thermo Scientific Co. Cat# K0800011). 500 LM3-3 cells were seeded in each bead-coated well. […] The cell track areas (pixels) were counted using Image J. To attain statistical significance, more than 50 cell tracks in each sample were counted.

Data set [10] has as its system heart muscle. Put plainly: H&E staining of heart tissues. Particulars: 24 h after drug administration.
For data set [11], the system named is cancer cells. The note with it: selective toxicity towards cancer cells; cited from earlier work.
The test system of data set [12] is Ki–67. Description: Ki-67 immunohistochemistry of tumor tissue. It is filed as in vivo, nude mice. The note with it: 0.75 mg/kg 3 times per week. As to the method:
The formalin-fixed, paraffin-embedded tissue was dried at 58°C for 1 hour in an oven, and de-paraffinized by soaking slides in xylene, ethanol, and finally distilled water. Antigen was retrieved by steaming slides in a target retrieval solution, 10 mM citrate buffer (pH 6.0), for 30 minutes. Endogenous peroxidases were blocked with a 3% of hydrogen peroxide solution in PBS buffer. The leftover hydrogen peroxide was removed with PBS rinse. […] To stain the SRC–3 antigen, anti-SRC–3 antibody (Mouse source, BD Biosciences Inc. Cat# 611104) was pre-diluted 1:400 in a normal serum blocking solution. To stain the Ki–67 antigen, anti-Ki–67 (Rabbit source, Cell Signaling Technology Inc. Cat#9027) was used in 1:10000 dilution. During the staining procedure, the sections were incubated with HRP-polymer conjugated secondary antibodies (Vector Laboratories, Cat#7401 for rabbit antibody, Cat#MP–2400 for mouse antibody). To visualize the immunostaining, the sections were incubated with a fresh DAB solution (Dako Inc. Cat# K3468) and monitored under a microscope. Once ideal signals were observed, the reaction was stopped by rinsing the slides with water. Nuclear counterstain was also performed by immersing slides in Mayer’s Hematoxylin and a bluing reagent.

The target of data set [13] is T1, SRC–3 (Homo sapiens, UniProt Q9Y6Q9). Put plainly: SRC-3 levels in tumor tissues (Western blotting, IHC). It is filed as in vivo, nude mice. Set-up: from tissue; host or cells: orthotopic MDA-MB-231-LM3-3 xenograft tumours from nude mice. The note with it: 0.75 mg/kg 3 times per week. The protocol:
Cell lysate was prepared by adding RIPA buffer (containing 10 mM Tris-Cl pH 8.0, 1 mM EDTA, 0.5 mM EGTA, 1% Triton X–100, 0.1% sodium deoxycholate, 0.1% SDS, 140 mM NaCl, and protease inhibitors) to cells kept on ice. After spinning samples at 16,000 rpm for 15 minutes at 4°C, insoluble materials in the collected cell lysate were precipitated and discarded. The total protein concentration was measured using a Bradford protein assay. An equivalent mass of each sample was loaded and electrophoretically separated by 10% SDS-PAGE. Then proteins on PAGE the gel were transferred to a PVDF membrane. Anti-SRC–3 (Cell Signaling Technology Co. Cat# 2126) and anti-actin (Cell Signaling Technology Co. Cat# 8457) were used to probe the membranes.
The formalin-fixed, paraffin-embedded tissue was dried at 58°C for 1 hour in an oven, and de-paraffinized by soaking slides in xylene, ethanol, and finally distilled water. Antigen was retrieved by steaming slides in a target retrieval solution, 10 mM citrate buffer (pH 6.0), for 30 minutes. Endogenous peroxidases were blocked with a 3% of hydrogen peroxide solution in PBS buffer. The leftover hydrogen peroxide was removed with PBS rinse. […] To visualize the immunostaining, the sections were incubated with a fresh DAB solution (Dako Inc. Cat# K3468) and monitored under a microscope. […]
In general terms: A western blot detects proteins with antibodies after separation by electrophoresis.

For data set [14], the system named is ICR mice. Put plainly: Electrocardiogram (EKG) measurements.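 Further: Non-invasive EKG recorded at several successive time points, with each individual signal then analysed by physiologic waveform analysis software.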 It is filed as in vivo, mouse.
Protocol: Non-invasive EKG recordings were made using the ECGenie system (Mouse Specifics) at several subsequent time points. […] Data acquisition was performed using the program LabChart 6 (AD Instruments). Individual EKG signals were then evaluated using e-MOUSE physiologic waveform analysis software (Mouse Specifics) as previously described [31].
The subject of data set [15] is MDA-MB-231-LM3-3 orthotopic breast tumors. Description: Therapeutic efficacy in orthotopic TNBC mouse model. In kind it is in vivo, nude mice. The protocol: To establish orthotopic breast tumors, 0.75 × 10^6 MDA-MB-231-LM3-3 cells were injected into one of the second mammary fat pads of nude mice (Charles River Laboratories, female, 6–7 weeks, n = 6/group). Phospho-bufalin was dissolved in PBS for tumor treatment. PBS was injected as the vehicle control. When tumors became palpable, generally 14 days after injection, mice were randomized into two groups. The treatment group was then injected with phospho-bufalin subcutaneously (0.75 mg/kg per dose, 3 doses per week) for 3 weeks while the control group received PBS. Tumor lengths and widths were measured three times per week. Tumor sizes were calculated by: (length × width × width)/2.

Data set [16] addresses T1, SRC–3. Put plainly: Western blotting of SRC-3, dose response in LM3-3 cells. In kind it is cell-based. Set-up: endogenous in cells.
Data set [17] has as its target T1, SRC–3. Set-up: Cell lysate was prepared by adding RIPA buffer; endogenous in cells; host or cells: HCC1143, SUM149PT, SUM159PT, MDA-MB-231, MDA-MB-231-LM3-3; method as in PMID 22053001. The note with it: cited from earlier work.
The mark [18] stands for this setting: female, ICR, mouse, plasma, ip, 0.5 mg/kg.
Where [19] appears, read: 7.5 mg/kg i.p., + 10 min post-injection.
Setting [20] is: 7.5 mg/kg i.p., - 5 min (before injection).
Where [21] appears, read: 11.25 mg/kg i.p., + 5 min post-injection.
The mark [22] stands for this setting: 11.25 mg/kg i.p., + 10 min post-injection.
[23] abbreviates: 11.25 mg/kg i.p., + 15 min post-injection.
Setting [24] is: 11.25 mg/kg i.p., - 5 min (before injection).

T1 sequence (Q9Y6Q9 whole entry): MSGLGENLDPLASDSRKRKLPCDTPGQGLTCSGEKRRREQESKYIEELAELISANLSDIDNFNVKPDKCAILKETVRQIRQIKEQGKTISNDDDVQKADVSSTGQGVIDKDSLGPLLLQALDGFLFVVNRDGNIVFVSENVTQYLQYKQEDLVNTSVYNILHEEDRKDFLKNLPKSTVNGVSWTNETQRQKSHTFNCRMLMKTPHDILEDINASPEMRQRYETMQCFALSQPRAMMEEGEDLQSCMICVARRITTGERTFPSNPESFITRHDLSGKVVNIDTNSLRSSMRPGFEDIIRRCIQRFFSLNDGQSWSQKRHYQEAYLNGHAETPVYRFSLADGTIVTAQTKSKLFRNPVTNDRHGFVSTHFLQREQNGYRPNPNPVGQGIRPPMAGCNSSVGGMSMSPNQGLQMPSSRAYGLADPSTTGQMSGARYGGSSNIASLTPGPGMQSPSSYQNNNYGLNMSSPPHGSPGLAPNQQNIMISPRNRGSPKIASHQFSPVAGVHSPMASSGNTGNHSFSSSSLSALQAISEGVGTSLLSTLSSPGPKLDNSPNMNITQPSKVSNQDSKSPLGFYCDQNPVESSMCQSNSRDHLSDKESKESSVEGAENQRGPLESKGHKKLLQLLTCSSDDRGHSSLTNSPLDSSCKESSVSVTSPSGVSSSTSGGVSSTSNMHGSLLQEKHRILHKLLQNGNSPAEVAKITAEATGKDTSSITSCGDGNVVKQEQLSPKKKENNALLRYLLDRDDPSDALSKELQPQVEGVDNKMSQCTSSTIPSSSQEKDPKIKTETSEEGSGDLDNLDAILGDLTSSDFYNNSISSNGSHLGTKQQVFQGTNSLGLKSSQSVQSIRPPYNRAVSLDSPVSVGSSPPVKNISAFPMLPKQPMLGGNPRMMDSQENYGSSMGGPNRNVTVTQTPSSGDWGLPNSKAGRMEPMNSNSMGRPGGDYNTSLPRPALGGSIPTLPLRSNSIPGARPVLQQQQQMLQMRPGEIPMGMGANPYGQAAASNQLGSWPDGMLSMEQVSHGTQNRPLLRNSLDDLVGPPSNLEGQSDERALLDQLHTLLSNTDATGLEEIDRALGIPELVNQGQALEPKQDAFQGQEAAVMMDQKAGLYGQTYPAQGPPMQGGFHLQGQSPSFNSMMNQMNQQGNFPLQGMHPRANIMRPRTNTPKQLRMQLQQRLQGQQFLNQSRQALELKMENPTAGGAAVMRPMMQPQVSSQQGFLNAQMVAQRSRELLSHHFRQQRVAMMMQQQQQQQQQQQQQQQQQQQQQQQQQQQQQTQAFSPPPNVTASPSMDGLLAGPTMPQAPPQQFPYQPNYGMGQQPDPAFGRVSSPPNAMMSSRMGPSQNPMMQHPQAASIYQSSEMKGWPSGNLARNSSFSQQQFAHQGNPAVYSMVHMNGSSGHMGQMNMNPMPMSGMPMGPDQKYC

A word on the IC50: it is the point on the concentration scale where inhibition reaches its midpoint. Low readings indicate inhibition by little substance, high ones a need for much substance. With `C[C@]12CC[C@H](O)C[C@H]1CC[C@@H]1[C@@H]2CC[C@]2(C)[C@@H](c3ccc(=O)oc3)CC[C@]12O` [bufalin], the IC50 is under 20 nM in data set [1]; 15.9 nM in data set [1] (Homo sapiens, SUM-159-PT); 20 nM in [2] (Homo sapiens); under 20 nM in [2]; 71.8 nM in data set [6]; 16.6 nM in data set [7] (72 h). For the same compound, the IC50 was under 20 nM in data set [7], under 20 nM in [8] and 16.6 nM in data set [8] (Homo sapiens). Further, in [3], the “toxicity in mouse primary hepatocytes” value was “did not cause any observable toxicity”. In addition, the “time post injection at which bufalin became undetectable” value in [4] (released bufalin after p-Buf 0.5 mg/kg i.p.) was found to be 1 h. Also, the “combination effect with gefitinib on LM3-3 cell viability” value in data set [5] (5 or 10 nM bufalin with gefitinib) is given as “synergize with gefitinib”. Besides, in data set [9] (12 h), the “toxicity toward LM3-3 cells under motility assay conditions” value is “minimal toxicity”. The “motility of LM3-3 cells” value in data set [9] (increasing concentrations) was “decreased with increasing concentrations”. In addition, the “damage to cardiomyocytes (histology)” value in data set [10] is “little damage to cardiomyocytes”. The IC50 values result in data set [11] is “low nM range”.

As a reminder, the AUC(0-inf) is the area under the concentration-time curve extrapolated to infinity. A lower AUC(0-inf) goes with low exposure. Broadly, the AUC(0-t) is exposure summed from dosing to a finite time, without extrapolation to infinity. Low readings indicate less exposure, high ones more exposure. Usually Tmax stands for the time from dosing to the highest level. The term half-life denotes how long it takes for the measured level to halve. Lower therefore signals rapid decline. As for `C[C@]12CC[C@H](OP(=O)(O)O)C[C@H]1CC[C@@H]1[C@@H]2CC[C@]2(C)[C@@H](c3ccc(=O)oc3)CC[C@]12O` [3-phospho-bufalin, 3-Phospho-bufalin], the “Ki-67 positive cells in tumor tissue (IHC)” value in [12] was “dramatically fewer Ki–67 positive cells”. Besides, in [4] (setting [18]), the AUC(0-inf) turned out to be 0.046 ± 0.018 µM·h, the area under the curve AUC(0-t) came to 0.031 ± 0.018 µM·h, the time to peak (Tmax) is 15 min and the half-life is 44.5 ± 6.24 min. The “conversion to parent bufalin in vivo” value in [4] (free bufalin detected in plasma) is given as “can be converted to parent bufalin in vivo”. In addition, in [13], the “SRC-3 level in tumor tissue (IHC staining) versus PBS” value is reported as “significantly lower” and the “SRC-3 protein levels in tumor tissues (Western blotting) versus PBS” value is “significantly lower”. For the same compound, the “changes in EKG parameters” value in data set [14] (7.5 mg/kg and 11.25 mg/kg i.p.) was “did not observe significant changes in EKG parameters”. Further, in [14] (setting [19]), the HR is 788.7 ± 1.2 BPM, the QRS was found to be 11.0 ± 0.1 ms, the QT is recorded as 38.2 ± 0.9 ms and the QTc amounted to 43.8 ± 1.0 ms. Also, in [14] (setting [19]), the RR is 76.1 ± 0.1 ms and the ST worked out at 27.6 ± 0.9 ms. In data set [14] (setting [20]), this compound yielded an HR of 754.7 ± 6.6 BPM, a QRS of 10.6 ± 0.1 ms, a QT of 40.2 ± 0.6 ms and a QTc of 45.0 ± 0.5 ms. In [14] (setting [20]), the RR was determined as 79.6 ± 0.7 ms and the ST turned out to be 30.1 ± 0.7 ms. Also, in data set [14] (setting [21]), the HR turned out to be 779.7 ± 1.5 BPM, the QRS is given as 10.9 ± 0.1 ms, the QT was determined as 37.1 ± 0.3 ms and the QTc is 42.3 ± 0.4 ms. For the same compound, in data set [14] (setting [21]), the RR was found to be 77.0 ± 0.1 ms and the ST is 26.7 ± 0.4 ms. Moreover, in data set [14] (setting [22]), the HR came out at 761.3 ± 7.5 BPM, the QRS was 11.1 ± 0.2 ms, the QT worked out at 38.1 ± 0.6 ms and the QTc came to 43.0 ± 0.6 ms. For the same compound, in data set [14] (setting [22]), the RR is on record as 78.8 ± 0.8 ms and the ST worked out at 26.6 ± 0.5 ms. In data set [14] (setting [23]), the HR is 755.0 ± 1.0 BPM, the QRS was 11.5 ± 0.1 ms, the QT is reported as 39.1 ± 0.9 ms and the QTc is 43.9 ± 0.9 ms. In [14] (setting [23]), the RR is given as 79.5 ± 0.1 ms and the ST amounted to 28.1 ± 0.8 ms. In data set [14] (setting [24]), this compound came in with an HR of 798.0 ± 12.8 BPM, a QRS of 10.6 ± 0.3 ms, a QT of 39.1 ± 2.4 ms and a QTc of 45.1 ± 2.9 ms. Besides, in data set [14] (setting [24]), the RR came to 75.8 ± 0.2 ms and the ST was 29.0 ± 2.2 ms. The “body weight versus control at the end of the experiment” value in data set [15] (0.75 mg/kg 3 times per week) is “statistically the same body weight”. In addition, the “tumor growth (tumor volume)” value in data set [15] (0.75 mg/kg, 3 times per week for 3 weeks, subcutaneously) is “significantly inhibit TNBC tumor growth”. Also, the “tumor weight, PBS treated relative to treatment group” value in [15] (day 31, 0.75 mg/kg 3 times per week) is listed as ~ 2.4 times. In addition, the “damage to cardiomyocytes (histology)” value in data set [10] is reported as “little damage to cardiomyocytes”. For the same compound, in data set [16] (LM3-3 cells, Western blotting), the “potency to inhibit SRC-3 levels compared with bufalin” value is recorded as “less potent than bufalin”. Also, the “downregulation of SRC-3 in LM3-3 cells (Western blotting)” value in data set [16] (dose response) was “can also inhibit SRC–3 expression levels”.

`COc1cc2ncnc(Nc3ccc(F)c(Cl)c3)c2cc1OCCCN1CCOCC1` [gefitinib]: in [5] (concentrations up to 20 μM), the “toxicity in LM3-3 cells, gefitinib alone” value is given as “minimal toxicity”.

On to `Cc1cc2c(C(C)C)c(O)c(O)c(C=O)c2c(O)c1-c1c(C)cc2c(C(C)C)c(O)c(O)c(C=O)c2c1O` [gossypol], for which the IC50 values result in data set [17] is reported as “micromolar”.
